Measurements reported in patent publication US20180071261A1, “CYCLOCREATINE MICROSUSPENSION” (Lumos Pharma, Inc., priority 2015, published 2018).
Values after ≈ are worked out from the molar mass of the structure shown.

How the values were obtained:
Assay type in all cases: physicochemical
[1] = Stability test: cyclocreatine concentration in suspension formulation over 40 days; conditions: suspension in water (~200 mg/mL)
[2] = Solubility of cyclocreatine in water
Description: The collected micronized API was then formulated with water to form an aqueous microsuspension. 20.0 grams of cyclocreatine was weighed into a graduated vessel. Approximately 80 mL of water was added and the solution mixed to allow partial dissolution. After mixing for 5 minutes, water was added to dilute to a final volume of 100 mL.

[3] = Drug stability: cyclocreatine degradation after milling
Description: (§1) The cyclocreatine samples were analyzed before and after milling (Example 1) to assess the effect of milling on the drug stability.
After milling for about 45 min, the particle size of the micronized API appeared to have been reduced uniformly for the entire batch of sample.

[4] = Particle size analysis before and after milling; conditions: for Particle size: 200 mg/mL, 1.0 mm zirconia beads, 3344 rpm
Source text: To a milling vessel size of 0.6 liter of a Glen Dyno Mill about 70% volume of zirconia grinding media was charged. An agitator shaft activated the media, creating shearing and impacting forces. The rotation of the agitator imparted energy to the surrounding media and fractures the cyclocreatine solids suspended in water, resulting in overall reduction in particle size.
Water was charged into a stainless steel vessel equipped with overhead agitator and blanketed with nitrogen followed by the addition of cyclocreatine. The mixture was pumped via a peristaltic pump into the grinding chamber. The milled sample exiting the chamber was collected in another stainless steel vessel (also equipped with an overhead agitator and blanked with nitrogen) until the first vessel was empty at which time a three way valve was switched as to continue pumping the mixture in one of the vessels into the grinding chamber. The drug concentration in the suspension ranged from 10-20% w/v. […] The rotation of the disk accelerated the milling media radially. The suspension mixture flowed axially through the milling chamber where the shear forces generated during impaction of the milling media with the solid particles provided the energy input to fracture the drug into nanometer-sized particles. Up to 40% nanoparticles were observed. In another embodiment, up to about 10% nanoparticles by volume were observed. The temperature inside the grinding chamber was controlled by circulating coolant through the outer jacket. The resultant microsuspension had good flow characteristics and appeared milky (FIG. 2).
For example a 200 mg/mL solid concentration of formulation processed in a 0.6 liter sized grinding chamber filled with 1.0 mm diameter zirconia beads and a 3344 rpm agitator speed for a total of two hours produced samples with similar final particle size in three repeated experiments. In all instances, the particle size decreased markedly within 30 min processing time from the initial 400 μm to about 80 μm, but with little change observed between 30 and 120 min. Further prolonging in the milling times was not beneficial, because decreased particle sizes were not achieved. In addition to particle size analysis (FIG. 3), the SEM micrographs (FIG. 4) further confirmed that the milling process as effective in converting the original cyclocreatine particles into the low micron range.
as §1

[5] = by process condition (un-milled vs wet bead mill)

Structure (SMILES): NC1=NCCN1CC(=O)O [Cyclocreatine, cyclocreatine]
- Cyclocreatine concentration in the suspension sample ([1]; day 0): 177.1 ± 0.5 mg/g
- Cyclocreatine concentration in the suspension sample ([1]; day 7): 174.6 ± 1.0 mg/g
- Cyclocreatine concentration in the suspension sample ([1]; day 11): 175.7 ± 1.0 mg/g
- Cyclocreatine concentration in the suspension sample ([1]; day 26): 176.9 ± 0.5 mg/g
- Cyclocreatine concentration in the suspension sample ([1]; day 40): 180.1 ± 1.5 mg/g
- solubility [2]: 17 mg/mL (≈ 119 mM)
- Cyclocreatine degradation after milling process (%) [3, 5]: 0%
- Stability during the milling process ([3]; dry milling (pin mill), about 45 min): stable
- Nanoparticles observed ([4]; after wet bead milling): Up to 40%
- Nanoparticles by volume observed ([4]; after wet bead milling, another embodiment, by volume): up to 10%
- Particle Size (μm, Volume weighted average) [4, 5]: 400 μm
- Particle size ([4]; initial, before wet milling): 400 μm
- Particle size ([4]; within 30 min processing time): about 80 μm
